# Measured values reported in PubChem BioAssay (NCI).
#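 The compound was tested at five concentrations on cells cultured in 96-well plates, with a 48-hour exposure period. Here, GI50 denotes the concentration required for 50% inhibition of growth. TGI: total growth inhibition.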
# Tests used:
# Experiment in all cases: DTP human tumour cell line panel, 48 h
# [1] = test system: 786-0 renal
# [2] = test system: A498 renal
# [3] = test system: A549 NSCLC
# [4] = test system: ACHN renal
# [5] = test system: BT-549 breast
# [6] = test system: CAKI-1 renal
# [7] = test system: CCRF-CEM leukemia
# [8] = test system: COLO 205 colon
# [9] = test system: DU-145 prostate
# [10] = test system: EKVX NSCLC
# [11] = test system: HCC-2998 colon
# [12] = test system: HCT-116 colon
# [13] = test system: HCT-15 colon
# [14] = test system: HL-60(TB) leukemia
# [15] = test system: HOP-62 NSCLC
# [16] = test system: HOP-92 NSCLC
# [17] = test system: HS 578T breast
# [18] = test system: HT29 colon
# [19] = test system: IGROV1 ovarian
# [20] = test system: K-562 leukemia
# [21] = test system: KM12 colon
# [22] = test system: LOX IMVI melanoma
# [23] = test system: M14 melanoma
# [24] = test system: MALME-3M melanoma
# [25] = test system: MCF7 breast
# [26] = test system: MDA-MB-231 breast
# [27] = test system: MDA-MB-435
# [28] = test system: MOLT-4 leukemia
# [29] = test system: NCI-H226 lung
# [30] = test system: NCI-H23 lung
# [31] = test system: NCI-H460 lung
# [32] = test system: NCI-H522 lung
# [33] = test system: NCI/ADR-RES ovarian
# [34] = test system: OVCAR-3 ovarian
# [35] = test system: OVCAR-4 ovarian
# [36] = test system: OVCAR-5 ovarian
# [37] = test system: OVCAR-8 ovarian
# [38] = test system: PC-3 prostate
# [39] = test system: RPMI-8226 leukemia
# [40] = test system: RXF 393 renal
# [41] = test system: SF-268 CNS
# [42] = test system: SF-295 CNS
# [43] = test system: SF-539 CNS
# [44] = test system: SK-MEL-2 melanoma
# [45] = test system: SK-MEL-28 melanoma
# [46] = test system: SK-MEL-5 melanoma
# [47] = test system: SK-OV-3 ovarian
# [48] = test system: SN12C renal
# [49] = test system: SNB-19 CNS
# [50] = test system: SNB-75 CNS
# [51] = test system: SR leukemia
# [52] = test system: SW-620 colon
# [53] = test system: T-47D breast
# [54] = test system: TK-10 renal
# [55] = test system: U251 CNS
# [56] = test system: UACC-257 melanoma
# [57] = test system: UACC-62 melanoma
# [58] = test system: UO-31 renal
smiles,measurement,setting,value
COc1ccc(/C(=N/Nc2ccc([N+](=O)[O-])cc2)Sc2cc(Cl)c(C)cc2S(N)(=O)=O)cc1,GI50,[1],4.21 µM
same,TGI,[1],14.9 µM
same,GI50,[2],0.107 µM
same,TGI,[2],2.68 µM
same,GI50,[3],5.25 µM
same,TGI,[3],18.1 µM
same,GI50,[4],6.34 µM
same,TGI,[4],17.5 µM
same,GI50,[5],22.2 µM
same,TGI,[5],42.3 µM
same,GI50,[6],4.44 µM
same,TGI,[6],9.47 µM
same,GI50,[7],6.45 µM
same,TGI,[7],33.9 µM
same,GI50,[8],8.57 µM
same,TGI,[8],33.3 µM
same,GI50,[9],3.8 µM
same,TGI,[9],9.77 µM
same,GI50,[10],3.34 µM
same,TGI,[10],10.9 µM
same,GI50,[11],4.29 µM
same,TGI,[11],8.75 µM
same,GI50,[12],2.31 µM
same,TGI,[12],5.48 µM
same,GI50,[13],7.25 µM
same,TGI,[13],> 40.8 µM
same,GI50,[14],40.3 µM
same,TGI,[14],> 100 µM
same,GI50,[15],5.94 µM
same,TGI,[15],16.4 µM
same,GI50,[16],2.47 µM
same,TGI,[16],8.01 µM
same,GI50,[17],4.82 µM
same,TGI,[17],16 µM
same,GI50,[18],2.91 µM
same,TGI,[18],6.89 µM
same,GI50,[19],9.65 µM
same,TGI,[19],> 93.2 µM
same,GI50,[20],4.67 µM
same,TGI,[20],15.4 µM
same,GI50,[21],3.22 µM
same,TGI,[21],9.96 µM
same,GI50,[22],3.68 µM
same,TGI,[22],10.4 µM
same,GI50,[23],5.75 µM
same,TGI,[23],15.3 µM
same,GI50,[24],3.13 µM
same,TGI,[24],10.1 µM
same,GI50,[25],4.84 µM
same,TGI,[25],15.6 µM
same,GI50,[26],3.04 µM
same,TGI,[26],8.21 µM
same,GI50,[27],4.67 µM
same,TGI,[27],13.3 µM
same,GI50,[28],5.02 µM
same,TGI,[28],16.5 µM
same,GI50,[29],3.52 µM
same,TGI,[29],9.63 µM
same,GI50,[30],4.69 µM
same,TGI,[30],9.77 µM
same,GI50,[31],5.55 µM
same,TGI,[31],24.2 µM
same,GI50,[32],13.1 µM
same,TGI,[32],38.1 µM
same,GI50,[33],5.42 µM
same,TGI,[33],14.1 µM
same,GI50,[34],2.52 µM
same,TGI,[34],7.4 µM
same,GI50,[35],2.61 µM
same,TGI,[35],7.11 µM
same,GI50,[36],7.59 µM
same,TGI,[36],19.2 µM
same,GI50,[37],7.28 µM
same,TGI,[37],> 57 µM
same,GI50,[38],5.2 µM
same,TGI,[38],17.6 µM
same,GI50,[39],5.11 µM
same,TGI,[39],13.6 µM
same,GI50,[40],4.3 µM
same,TGI,[40],11.5 µM
same,GI50,[41],6.66 µM
same,TGI,[41],19.9 µM
same,GI50,[42],3.31 µM
same,TGI,[42],8.78 µM
same,GI50,[43],3.74 µM
same,TGI,[43],9.81 µM
same,GI50,[44],12.3 µM
same,TGI,[44],34 µM
same,GI50,[45],6.57 µM
same,TGI,[45],16.6 µM
same,GI50,[46],0.706 µM
same,TGI,[46],7.43 µM
same,GI50,[47],5.89 µM
same,TGI,[47],12.7 µM
same,GI50,[48],2.2 µM
same,TGI,[48],4.29 µM
same,GI50,[49],7.06 µM
same,TGI,[49],20.3 µM
same,GI50,[50],2.68 µM
same,TGI,[50],6.39 µM
same,GI50,[51],2.17 µM
same,TGI,[51],5.41 µM
same,GI50,[52],5.86 µM
same,TGI,[52],18.2 µM
same,GI50,[53],7.16 µM
same,TGI,[53],19.2 µM
same,GI50,[54],2.47 µM
same,TGI,[54],6.73 µM
same,GI50,[55],7.13 µM
same,TGI,[55],24.3 µM
same,GI50,[56],13 µM
same,TGI,[56],26.4 µM
same,GI50,[57],3.02 µM
same,TGI,[57],8.54 µM
same,GI50,[58],8.49 µM
same,TGI,[58],> 41.7 µM
